Data from patent US10519177B2, “Heterocyclic compounds and uses thereof” (Plexxikon Inc., priority 2013, dated 2019).
Read-outs that look alike come from different tables or passages of the source.

What was measured:
BRD4-BD1 (44-164) = BRD4-BD1 (44-164) (Homo sapiens (Human), UniProt O60885); test: Alphascreen binding assay BRD4-BD1; details: BRD4(1) H4; read-out: Biochemical activity (IC50 μM) BRD4(1) H4
In short: (§1)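 In this competition format, compounds displace a biotinylated tetra-acetyl H4 peptide from E. coli-expressed human BRD4 bromodomain constructs captured on nickel chelate beads. The reaction runs at pH 7.5 with 2 mM DTT and detergent for 1 h at room temperature before a 30 min bead step.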

bromodomain = test: at least one of the bromodomain cell assays of Example 57; format: cell-based; details: at least one of the bromodomain cell assays described in Example 57; read-out: IC50 in at least one of the bromodomain cell assays
MV-4-11 cells = test: Oncology cell growth assay MV-4-11 (CellTiter Glo); format: cell-based
In short: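 Growth read by CellTiter Glo luminescence after 72 h compound treatment of MLL-AF4-bearing MV-4-11 cells (3000/well). Titration: 8 points, 1:3 steps, maximum 10 μM, 0.2% DMSO final. Data normalized to DMSO wells, four-parameter fit gives pIC50.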

BRD4-BD12 (1-477) = BRD4-BD12 (1-477) (Homo sapiens (Human), UniProt O60885); test: Alphascreen binding assay BRD4-BD12; details: BRD4(1 2) H4; read-out: Biochemical activity (IC50 μM) BRD4(1 2) H4
In short: as §1

[1] = Homo sapiens, MV4-11, 72 h; read-out: Cell activity (IC50 μM) MV-4-11 3d-Growth

Molecule | IC50 (BRD4-BD1 (44-164)) | IC50 (bromodomain) | IC50 (MV-4-11 cells; Homo sapiens, MV4-11, 72 h, read-out: Cell activity (IC50 μM) MV-4-11 3d-Growth) | IC50 (MV-4-11 cells; [1]) | IC50 (BRD4-BD12 (1-477)) | IC50 (MV-4-11 cells; MV-4-11 3d-Growth; read-out: Cell activity (IC50 μM) MV-4-11 3d-Growth)
1-(benzenesulfonyl)-5-(3,5-dimethylisoxazol-4-yl)pyrrolo[2,3-b]pyridine-3-carboxylic acid [P-0169] | < 1 µM | < 10 µM |  |  |  | 
Cc1noc(C)c1-c1cnc2c(c1)c(C(O)C1CCC(F)(F)CC1)cn2C (centres unmarked) [P-0101, (4,4-difluorocyclohexyl)-[5-(3,5-dimethylisoxazol-4-yl)-1-methyl-pyrrolo[2,3-b]pyridin-3-yl]methanol] | < 1 µM |  | < 1 µM |  |  | 
Cc1noc(C)c1-c1cnc2c(c1)c(CC1CCN(C(=O)Nc3ccccc3)CC1)cn2C [P-0114, 4-[[5-(3,5-dimethylisoxazol-4-yl)-1-methyl-pyrrolo[2,3-b]pyridin-3-yl]methyl]-N-phenyl-piperidine-1-carboxamide] | < 1 µM | < 10 µM |  | < 1 µM |  | 
CCS(=O)(=O)N1CCC(Cc2cn(C)c3ncc(-c4c(C)noc4C)cc23)CC1 [P-0116, 4-[3-[(1-ethylsulfonyl-4-piperidyl)methyl]-1-methyl-pyrrolo[2,3-b]pyridin-5-yl]-3,5-dimethyl-isoxazole] | < 1 µM | < 10 µM |  | 1 to 10 µM |  | 
Cc1noc(C)c1-c1cnc2c(c1)c(CC1CCN(S(=O)(=O)C3CCCC3)CC1)cn2C [P-0119, 4-[3-[(1-cyclopentylsulfonyl-4-piperidyl)methyl]-1-methyl-pyrrolo[2,3-b]pyridin-5-yl]-3,5-dimethyl-isoxazole] | 1 to 10 µM | < 10 µM |  | 1 to 10 µM |  | 
Cc1noc(C)c1-c1cnc2c(-c3cnn(CC(F)(F)F)c3)cn(C(C)c3ccccc3)c2c1 (centres unmarked) [P-0202, 3,5-dimethyl-4-[1-(1-phenyl-ethyl)-3-[1-(2,2,2-trifluoro-ethyl)pyrazol-4-yl]pyrrolo[3,2-b]pyridin-6-yl]isoxazole] | < 1 µM | < 10 µM |  | < 1 µM |  | 
Cc1noc(C)c1-c1cnc2c(-c3cnn(C(F)F)c3)cn(CC3CCC(F)(F)CC3)c2c1 [P-0210, 4-[1-[(4,4-difluorocyclohexyl)methyl]-3-[1-(difluoromethyl)pyrazol-4-yl]pyrrolo[3,2-b]pyridin-6-yl]-3,5-dimethyl-isoxazole] | < 1 µM |  |  |  |  | 
Cc1noc(C)c1-c1cnc2c(-c3cnn(C)c3)cn(CC3(F)CCCCC3)c2c1 [P-0212, 4-[1-[(1-fluorocyclohexyl)methyl]-3-(1-methylpyrazol-4-yl)pyrrolo[3,2-b]pyridin-6-yl]-3,5-dimethyl-isoxazole] | < 1 µM |  |  |  |  | 
Cc1noc(C)c1-c1cnc2c(-c3cnn(C)c3)cn(CC3CC(F)(F)C3)c2c1 [P-0213, 4-[1-[(3,3-difluorocyclobutyl)methyl]-3-(1-methylpyrazol-4-yl)pyrrolo[3,2-b]pyridin-6-yl]-3,5-dimethyl-isoxazole] | < 1 µM |  |  |  |  | 
Cc1noc(C)c1-c1cnc2c(-c3cc(C(F)(F)F)n[nH]3)cn(C(C)c3ccccc3)c2c1 (centres unmarked) [P-0215, 3,5-dimethyl-4-[1-(1-phenylethyl)-3-[3-(trifluoromethyl)-1H-pyrazol-5-yl]pyrrolo[3,2-b]pyridin-6-yl]isoxazole] | < 1 µM |  |  |  |  | 
Cc1noc(C)c1-c1cnc2c(-c3cnn(C4CC4)c3)cn(C(C)c3ccccc3)c2c1 (centres unmarked) [P-0216, 4-[3-(1-cyclopropylpyrazol-4-yl)-1-(1-phenylethyl)pyrrolo[3,2-b]pyridin-6-yl]-3,5-dimethyl-isoxazole] | < 1 µM |  |  |  |  | 
Cc1noc(C)c1-c1cnc2c(-c3cnn(C)c3)cn(C(C)c3ccccn3)c2c1 (centres unmarked) [P-0217, 3,5-dimethyl-4-[3-(1-methylpyrazol-4-yl)-1-[1-(2-pyridyl)ethyl]pyrrolo[3,2-b]pyridin-6-yl]isoxazole] | < 1 µM | < 10 µM |  | < 1 µM |  | 
Cc1noc(C)c1-c1cnc2c(-c3cnn(C)c3)cn([C@@H](C)c3ccccc3)c2c1 [P-0222, 3,5-dimethyl-4-[3-(1-methylpyrazol-4-yl)-1-[(1S)-1-phenylethyl]pyrrolo[3,2-b]pyridin-6-yl]isoxazole] | < 1 µM |  |  |  |  | 
Cc1noc(C)c1-c1cnc2c(I)cn(C(C)c3ccccc3)c2c1 (centres unmarked) [P-0224, 4-[3-iodo-1-(1-phenylethyl)pyrrolo[3,2-b]pyridin-6-yl]-3,5-dimethyl-isoxazole] | < 1 µM |  |  |  |  | 
[2H]C([2H])(C1CC(F)(F)C1)n1cc(-c2cnn(CC(F)(F)F)c2)c2ncc(-c3c(C)noc3C)cc21 [P-0257, 4-[1-[dideuterio-(3,3-difluorocyclobutyl)methyl]-3-[1-(2,2,2-trifluoroethyl)pyrazol-4-yl]pyrrolo[3,2-b]pyridin-6-yl]-3,5-dimethyl-isoxazole] | < 1 µM | < 10 µM |  | < 1 µM | < 1 µM | 
[2H]C([2H])(C1CCC(F)(F)CC1)n1cc(I)c2ncc(-c3c(C)noc3C)cc21 [P-0262, 4-[1-[dideuterio-(4,4-difluorocyclohexyl)methyl]-3-iodo-pyrrolo[3,2-b]pyridin-6-yl]-3,5-dimethyl-isoxazole] | < 1 µM | < 10 µM |  | < 1 µM | < 1 µM | 
Cc1noc(C)c1-c1cnc2c(C#CCO)cn(CC3CCC(F)(F)CC3)c2c1 [P-0264, 3-[1-[(4,4-difluorocyclohexyl)methyl]-6-(3,5-dimethylisoxazol-4-yl)pyrrolo[3,2-b]pyridin-3-yl]prop-2-yn-1-ol] | < 1 µM | < 10 µM |  | < 1 µM | 1 to 10 µM | 
Cc1noc(C)c1-c1cnc2c(-c3cnn(CC(F)(F)F)c3)c[nH]c2c1 [P-0265, 3,5-dimethyl-4-[3-[1-(2,2,2-trifluoroethyl)pyrazol-4-yl]-1H-pyrrolo[3,2-b]pyridin-6-yl]isoxazole] | < 1 µM | < 10 µM |  | < 1 µM | < 1 µM | 
Cc1noc(C)c1-c1cnc2c(-c3cnn(CC(F)(F)F)c3)cn(C(CC#N)C3CCCC3)c2c1 (centres unmarked) [P-0266, 3-cyclopentyl-3-[6-(3,5-dimethylisoxazol-4-yl)-3-[1-(2,2,2-trifluoroethyl)pyrazol-4-yl]pyrrolo[3,2-b]pyridin-1-vl]propanenitrile] | < 1 µM | < 10 µM |  | < 1 µM | < 1 µM | 
Cc1noc(C)c1-c1cnc2c(-c3cccnc3)cn(C(C)c3ccccc3)c2c1 (centres unmarked) [P-0267] | < 1 µM | < 10 µM |  | < 1 µM | < 1 µM | 
Cc1noc(C)c1-c1cnc2c(-c3ccnc(C4CC4)c3)cn(C(C)c3ccccc3)c2c1 (centres unmarked) [P-0268, 4-[3-(2-cyclopropyl-4-pyridyl)-1-(1-phenylethyl)pyrrolo[3,2-b]pyridin-6-yl]-3,5-dimethyl-isoxazole] | < 1 µM | < 10 µM |  | < 1 µM | < 1 µM | 
Cc1noc(C)c1-c1cnc2c(-c3ccc(Cl)cc3)cn(C(C)c3ccccc3)c2c1 (centres unmarked) [P-0269, 4-[3-(4-chlorophenyl)-1-(1-phenylethyl)pyrrolo[3,2-b]pyridin-6-yl]-3,5-dimethyl-isoxazole] | < 1 µM | < 10 µM |  | 1 to 10 µM | < 1 µM | 
Cc1noc(C)c1-c1cnc2c(-c3ccc(O)nc3)cn(C(C)c3ccccc3)c2c1 (centres unmarked) [P-0270, 5-[6-(3,5-dimethylisoxazol-4-yl)-1-(1-phenylethyl)pyrrolo[3,2-b]pyridin-3-yl]pyridin-2-ol] | < 1 µM | < 10 µM |  | < 1 µM | < 1 µM | 
COc1ccc(-c2cn(C(C)c3ccccc3)c3cc(-c4c(C)noc4C)cnc23)cn1 (centres unmarked) [P-0271, 4-[3-(6-methoxy-3-pyridyl)-1-(1-phenylethyl)pyrrolo[3,2-b]pyridin-6-yl]-3,5-dimethyl-isoxazole] | < 1 µM | < 10 µM |  | < 1 µM | < 1 µM | 
Cc1ccc(-c2cn(C(C)c3ccccc3)c3cc(-c4c(C)noc4C)cnc23)cn1 (centres unmarked) [P-0272, 3,5-dimethyl-4-[3-(6-methyl-3-pyridyl)-1-(1-phenylethyl)pyrrolo[3,2-b]pyridin-6-yl]isoxazole] | < 1 µM | < 10 µM |  | < 1 µM | < 1 µM | 
Cc1noc(C)c1-c1cnc2c(-c3ccc(C(=O)O)cc3)cn(C(C)c3ccccc3)c2c1 (centres unmarked) [P-0273, 4-[6-(3,5-dimethylisoxazol-4-yl)-1-(1-phenylethyl)pyrrolo[3,2-b]pyridin-3-yl]benzoic acid] | < 1 µM | < 10 µM |  | < 1 µM | < 1 µM | 
Cc1n[nH]cc1-c1cnc2ccn(CC3CCC(F)(F)CC3)c2c1 [P-0292, l-[(4,4-difluorocyclohexyl)methyl]-6-(3-methyl-1H-pyrazol-4-yl)pyrrolo[3,2-b]pyridine] | 10 to 200 µM | < 10 µM |  | 1 to 10 µM |  | 
[6-(3,5-dimethylisoxazol-4-yl)-1H-pyrrolo[3,2-b]pyridin-3-yl]-tetrahydrothiopyran-4-yl-methanone [P-0091] | < 1 µM | < 10 µM |  |  |  | 1 to 10 µM
